Data published in ChEMBL document CHEMBL1144921, “14-amino, 14-alkylamino, and 14-acylamino analogs of oxymorphindole. Differential effects on opioid receptor binding and functional profiles” (J Med Chem, 2003).

How the values were obtained:
[1] = molecular target: T1, Kappa-type opioid receptor (Homo sapiens, UniProt P41145); assay: Percent stimulation of [35S]GTP-gamma-S, binding in recombinant human Opioid receptor kappa 1 transfected into CHO cells: Antagonist activity; format: functional, cell-based; settings: filed as antagonist
[2] = molecular target: T2, Delta-type opioid receptor (Homo sapiens, UniProt P41143); assay: Percent stimulation of [35S]GTP-gamma-S, binding to recombinant human Opioid receptor delta 1 expressed in CHO cells; format: functional, cell-based
Mu-type opioid receptor [3] = molecular target: T3, Mu-type opioid receptor (Homo sapiens, UniProt P35372); assay: Displacement of [3H]DAMGO from human recombinant Opioid receptor mu 1 on CHO cell membranes.; format: cell-based
Mu-type opioid receptor [4] = molecular target: T3, Mu-type opioid receptor; assay: Percent stimulation of [35S]GTP-gamma-S, binding in recombinant human mu opioid receptor transfected into CHO cells; format: functional, cell-based
[5] = molecular target: Opioid receptors; mu & delta (Homo sapiens) (UniProt P41143+P35372); assay: Selectivity between mu opioid receptor and delta opioid receptor.; format: functional
[6] = molecular target: T2, Delta-type opioid receptor; assay: Displacement of [3H]C1-DPDPE from human recombinant Opioid receptor delta 1 on CHO cell membranes.; format: cell-based
[7] = molecular target: T1, Kappa-type opioid receptor; assay: Displacement of [3H]U-69593 from human recombinant Opioid receptor kappa 1 on CHO cell membranes.; format: cell-based
[8] = molecular target: T1, Kappa-type opioid receptor; assay: Percent stimulation of [35S]GTP-gamma-S, binding in recombinant human Opioid receptor kappa 1 transfected into CHO cells; format: functional, cell-based
[9] = molecular target: Opioid receptors; delta & kappa (Homo sapiens) (UniProt P41145+P41143); assay: Selectivity between kappa opioid receptor and delta opioid receptor.; format: functional
Mu-type opioid receptor [10] = molecular target: T3, Mu-type opioid receptor; assay: Stimulation of [35S]GTP-gamma-S, binding to recombinant human Opioid receptor mu 1 expressed in CHO cells; format: functional, cell-based
[11] = molecular target: T2, Delta-type opioid receptor; assay: Stimulation of [35S]GTP-gamma-S, binding at human recombinant Opioid receptor delta 1 transfected into CHO cells.; format: functional, cell-based
[12] = molecular target: T1, Kappa-type opioid receptor; assay: Stimulation of […] binding at human recombinant Opioid receptor kappa 1 transfected into CHO cells.; format: cell-based
[13] = molecular target: T1, Kappa-type opioid receptor; assay: Percent stimulation of […] binding in recombinant human Opioid receptor kappa 1 transfected into CHO cells: Antagonist activity; format: cell-based; settings: filed as antagonist
Mu-type opioid receptor [14] = molecular target: T3, Mu-type opioid receptor; assay: Percent stimulation of [35S]GTP-gamma-S, binding in recombinant human Opioid receptor mu 1 transfected into CHO cells; format: functional, cell-based

T3 sequence (P35372 whole entry): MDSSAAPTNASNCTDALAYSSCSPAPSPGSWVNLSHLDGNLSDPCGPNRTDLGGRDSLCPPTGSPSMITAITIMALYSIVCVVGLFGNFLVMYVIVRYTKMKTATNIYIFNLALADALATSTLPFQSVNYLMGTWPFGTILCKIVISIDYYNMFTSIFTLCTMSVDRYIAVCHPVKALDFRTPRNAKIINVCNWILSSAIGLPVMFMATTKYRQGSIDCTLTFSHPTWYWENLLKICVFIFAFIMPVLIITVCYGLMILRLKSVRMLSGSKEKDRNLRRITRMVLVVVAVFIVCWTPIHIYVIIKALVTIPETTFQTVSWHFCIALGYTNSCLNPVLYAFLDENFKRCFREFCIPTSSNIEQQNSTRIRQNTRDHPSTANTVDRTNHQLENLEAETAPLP
Chain of Opioid receptors; mu & delta (Homo sapiens) (P35372 whole entry, looked up): as the sequence (P35372 whole entry) above
Chain of Opioid receptors; mu & delta (Homo sapiens) (P41143 whole entry, looked up): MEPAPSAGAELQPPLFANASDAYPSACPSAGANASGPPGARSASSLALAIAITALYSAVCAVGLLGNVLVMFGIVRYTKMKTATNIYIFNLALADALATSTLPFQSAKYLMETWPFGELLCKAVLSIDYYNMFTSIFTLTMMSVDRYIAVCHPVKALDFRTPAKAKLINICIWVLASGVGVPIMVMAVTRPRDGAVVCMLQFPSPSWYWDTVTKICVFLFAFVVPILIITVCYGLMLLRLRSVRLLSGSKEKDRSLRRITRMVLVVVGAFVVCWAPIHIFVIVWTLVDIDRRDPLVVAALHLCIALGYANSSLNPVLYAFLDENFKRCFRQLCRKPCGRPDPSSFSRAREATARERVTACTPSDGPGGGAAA
T1 sequence (P41145 whole entry): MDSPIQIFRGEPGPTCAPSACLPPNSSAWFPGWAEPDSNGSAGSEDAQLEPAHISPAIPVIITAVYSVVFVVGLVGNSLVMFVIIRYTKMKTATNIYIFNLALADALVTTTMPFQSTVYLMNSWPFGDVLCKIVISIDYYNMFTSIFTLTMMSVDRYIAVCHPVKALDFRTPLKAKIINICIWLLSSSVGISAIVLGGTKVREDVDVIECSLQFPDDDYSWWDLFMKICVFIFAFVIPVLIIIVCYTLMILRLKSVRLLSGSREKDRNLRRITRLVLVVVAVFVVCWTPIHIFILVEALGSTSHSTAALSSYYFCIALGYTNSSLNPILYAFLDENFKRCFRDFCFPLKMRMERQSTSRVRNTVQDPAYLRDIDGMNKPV
T2 sequence (P41143 whole entry): as the sequence (P41143 whole entry, looked up) above
Chain of Opioid receptors; delta & kappa (Homo sapiens) (P41143 whole entry, looked up): as above
Chain of Opioid receptors; delta & kappa (Homo sapiens) (P41145 whole entry, looked up): as the sequence (P41145 whole entry) above

SMILES	Activity [1]	Stimulation [2]	Ki (Mu-type opioid receptor [3])	Stimulation (Mu-type opioid receptor [4])	Selectivity [5]	Ki [6]	Ki [7]	Stimulation [8]	Selectivity [9]	EC50 (Mu-type opioid receptor [10])	EC50 [11]	EC50 [12]	Activity [13]	Stimulation (Mu-type opioid receptor [14])	Activity (Mu-type opioid receptor [14])
Oc1ccc2c3c1O[C@H]1c4[nH]c5c(c4C[C@@]4(O)[C@@H](C2)N(CC2CC2)CC[C@]314)C[C@@]1(O)[C@H]2Cc3ccc(O)c4c3[C@@]1(CCN2CC1CC1)[C@H]5O4	Antagonist														
CN1CC[C@]23c4c5ccc(O)c4O[C@H]2c2[nH]c4ccccc4c2C[C@@]3(NCCCc2ccccc2)C1C5		37%	0.0102 µM	50%	5	0.00195 µM	0.00779 µM	65%	4	0.0451 µM	0.00087 µM	0.0272 µM			
CCN[C@@]12Cc3c([nH]c4ccccc34)[C@@H]3Oc4c(O)ccc5c4[C@@]31CCN(C)C2C5		43%	0.0763 µM		105	0.00073 µM	0.0638 µM		87	0.184 µM	0.00033 µM		Antagonist	50%	
CN1CC[C@]23c4c5ccc(O)c4O[C@H]2c2[nH]c4ccccc4c2C[C@@]3(CCCc2ccccc2)C1C5		65%	0.00491 µM		0.2	0.0236 µM	0.0633 µM	67%	2.7	0.0215 µM	0.00753 µM	0.0965 µM		91%	
CN1CC[C@]23c4c5ccc(O)c4O[C@H]2c2[nH]c4ccccc4c2C[C@@]3(N)C1C5		38%	1.05 µM		365	0.00288 µM	0.399 µM			> 1 µM	0.0086 µM		Antagonist		
C[C@@H](NC(=O)[C@@H](N)Cc1ccc(O)cc1)C(=O)NCC(=O)N(C)[C@@H](Cc1ccccc1)C(=O)NCCO								62%						100%	
CCCCCCC(=O)N[C@@]12Cc3c([nH]c4ccccc34)[C@@H]3Oc4c(O)ccc5c4[C@@]31CCN(C)C2C5	Antagonist	55%	0.0334 µM	44%	3.2	0.0103 µM	0.409 µM		40	0.0514 µM	0.019 µM				
Oc1ccc2c3c1O[C@H]1c4[nH]c5ccccc5c4C[C@@]4(O)[C@@H](C2)N(CC2CC2)CC[C@]314	Antagonist														
CN1CC[C@]23c4c5ccc(O)c4O[C@H]2c2[nH]c4ccccc4c2C[C@@]3(NCCc2ccccc2)C1C5		33%	0.00168 µM		1.5	0.0011 µM	0.0138 µM	74%	13	0.00533 µM	0.00095 µM	0.0164 µM		93%	
CN1CC[C@]23c4c5ccc(O)c4O[C@H]2c2[nH]c4ccccc4c2C[C@@]3(O)[C@H]1C5 [OXYMORPHINDOLE]			0.363 µM		284	0.00128 µM	0.396 µM		309						
CN1CC[C@]23c4c5ccc(O)c4O[C@H]2c2[nH]c4ccccc4c2C[C@@]3(NC(=O)Cc2ccccc2)C1C5		89%	0.0293 µM		4.5	0.00655 µM	0.148 µM	36%	23	0.095 µM	0.0012 µM	0.0962 µM		53%	
CN1CC[C@]23c4c5ccc(O)c4O[C@H]2c2[nH]c4ccccc4c2C[C@@]3(NC(=O)CCc2ccccc2)C1C5	Antagonist	72%	0.00961 µM		2.3	0.00423 µM	0.0245 µM		5.8	0.0052 µM	0.0014 µM			27%	
CCCCN[C@@]12Cc3c([nH]c4ccccc34)[C@@H]3Oc4c(O)ccc5c4[C@@]31CCN(C)C2C5		36%	0.0372 µM		27	0.00139 µM	0.0361 µM	33%	26	0.272 µM	0.00471 µM	0.936 µM		40%	
CCCCC(=O)N[C@@]12Cc3c([nH]c4ccccc34)[C@@H]3Oc4c(O)ccc5c4[C@@]31CCN(C)C2C5	Antagonist	74%	0.0511 µM		25	0.00207 µM	0.723 µM		349	0.149 µM	0.0033 µM	0.0569 µM			31%
